The values that follow come from patent US20090176776A1, “SMALL MOLECULE INHIBITORS OF HIV-1 CAPSID ASSEMBLY” (UNIVERSITY OF ALABAMA AT BIRMINGHAM, priority 2005, published 2009).

Data set [1] has as its target T1, recombinant HIV-1 capsid protein (CA) (Human immunodeficiency virus type 1 group M subtype B, UniProt P12493).
T1 construct: recombinant HIV-1 capsid protein (CA); made in house
Kind of data set: Turbidity based HIV-1 capsid assembly assay. It counts as biochemical. Conditions: initial assembly rate by turbidity; twofold dilutions over a 128 fold range; 30 μM CA, 2.25 M NaCl. How it is done: The kinetics can be followed by monitoring the increase of turbidity using a spectrophotometer. The IC50 of the chemical compound tested is determined by titration. As the C-domain inhibits capsid assembly by forming CA-C-domain heterodimers, the effect of added C-terminal domain on the rate of assembly was evaluated by plotting the rate of assembly versus C-terminal domain concentration.
Soluble HIV-1 capsid protein can be triggered to assemble into tubes similar in diameter and morphology to intact cores by dilution into high iconic strength buffer. The kinetics of assembly can be followed by monitoring the increase in turbidity using a spectrophotometer (Lanham et al., J. Virol., 76:6900, 2002). This assembly assay was adapted to a 96-well, microplate format to allow for medium-throughput screening of compounds by measuring turbidity in a Nepeloskan Ascent plate reader (Thermo Electron Corp., UK). A DIVERSet™ library of 10,000 low molecular weight, “drug-like” compounds was purchased from ChemBridge Corp. (San Diego, Calif.). This library was selected for its potential bioavailability and application based on a pharmacophore diversity analysis. The average molecular weight of the compounds is 347 g/mol, the range being 200-596 g/mol. The compounds came plated in 96-well plates and solubilized in DMSO at 5 mgs/mL.
Turbidity based assay. A 1.5 μL aliquot of compound was diluted 90-fold into 50 mM Na2HPO4, […] buffer, pH 8 in an optically clear 96-well plate. The plate containing compounds and salt was read to check for compound solubility and to serve as a background reading for the assay. To initiate the assembly reaction, 15 μL of […] stock (in 50 mM Na2HPO4 pH 8) of recombinant HIV-1 capsid protein (CA), purified as described (Lanman et al., J. Virol., 76:6900, 2002), was added to each well of the 96-well plate using a multi-channel pipettor. […] Furthermore, the halftime of the assembly reaction is ˜5 minutes so reading the plate in thirds prevented loss of initial rate data. Therefore, CA was added to the first 4 lanes, the reactions followed for ten minutes, reading was paused, CA was then added to the next four lanes and the process repeated. Instrument settings are as follows: PMT gain of 500 V, lamp at 10V, and integration time of 60 ms. The data were exported to a custom designed Excel spreadsheet that allowed simultaneous plotting of kinetic curves.
Recombinant CA protein was purified as previously described and stored at 300 μM at −80° C. A turbidity based assembly assay, described above, was adapted to a 96-well, microplate format to allow for medium-throughput screening of compounds in a Nepheloskan Ascent plate reader (Thermo Electron Corp., UK). A 1.5 μL aliquot of compound or DMSO was diluted 90-fold into 50 mM Na2HPO4, 2.25 M NaCl buffer, pH 8 in an optically clear 96-well plate. To initiate the assembly reaction, 15 μL of the 300 μM stock (in 50 mM Na2HPO4 pH 8) of recombinant HIV-1 capsid protein (CA), was added to each well of the 96-well plate using a multi-channel pipettor.

The nature of data set [2]: MTS score (Table 1; method not described). It counts as cell-based.
A further data set deals with HIV-1NL43. The experiment in a line: Anti-HIV assay (single round), p24 production by pNL43-transfected cells (ELISA). It counts as cell-based. Conditions: p24 in supernatant of NL43-transfected 293T cells, 72 hours; read-out: p24 50%. How it is done: Anti-HIV Assays (Single Round). The inhibitory effect of the compounds on virus production and infectivity were determined by measuring the level of p24 produced in the presence of various concentrations of compounds from HEK-293 cells transiently transfected with pNL43 and by titering the virus on TZM-b1 cells. Briefly, 2.5×10^5 HEK-293 cells/ml were transfected with pNL43 using FuGene 6. Four hours post transfection the cells were plated in 96-well plates containing 100 μl of various concentrations of compounds (0-75 μM or 0-300 μM for mock transfected cells) in triplicate. At 72-hours post transfection virus supernatant was collected and stored at −80° C. until analysis. The level of p24 produced at each compound concentration was determined relative to the level produced in the presence of the DMSO only controls using HIV-1 p24 enzyme-linked immunosorbent assay (ELISA) (Beckman-Coulter). To determine the infectivity of the virus produced TZM-b1 cells were plated at 1×10^5 cells/ml in 100 μL in 96-well plates overnight. The next day, the media was replaced with 75 μL DMEM supplemented with 1% FBS, 1× PSG and 40 μg/ml DEAE Dextran and 25 μL of viral supernatant from the HEK-293 cells was added to each well. Three hours later 100 μL of DMEM with 7% FBS was added to each well. Two days after infection the cells were lysed and the level of luciferase expression was determined using the Bright-Glo assay.
FIGS. 12-18 show the anti-HIV assays for the examples of chemical compounds used according to the invention. After in-vitro assay, the chemical compounds in FIGS. 12-18 were selected for screening for cell viability and toxicity. Jurkat cells assay was used as screening assay. In Jurkat cells assay, JLTRG-R5 cells were used as Indicator cells and MOLT4 cells as Producer cells of NL43 and BAL virus. 96 chemical compounds were plated at seven different concentration from 75 μM to 0 μM at three-fold serial dilutions in 384 well plate. After five days, GFP expression was read. Cell viability was monitored with Alamar Blue assay. Luc M7 assay was designed to measure inhibitory activity of the chemical compounds to viral replication. After infection of cells with YU2 virus, plate cells in 96-well plate in the presence of six concentration of compounds in DMSO. At day 6, the number of cells in wells were read with Cell Titer Glo kit or by counting the number of cells infected with Bright Glo kit. 293T cells assay was designed to determine the toxicity. 293T cells were transfected with NL43. After four hours, transfected cells were plated in 96-well plate in DMSO and 2 μM Indinavir. 72 hours later, viral supernatant was collected and plated on JC53BL. Luciferase expression was measure after two days and p24 analysis was conducted with 1:1000 and 1:2000 dilutions.
(ELISA stands for enzyme-linked immunosorbent assay.)

Molecules are shown by their SMILES.

Regarding `Cc1ncc(C[n+]2csc(CCOC(=O)C3C4CC5CC(C4)CC3C5)c2C)c(N)n1.Cl.[Cl-]` (stereo not drawn) [Compound 26], the IC50 is 28 µM in data set [1] and 60.2 µM in the data set with HIV-1NL43. The “MTS AVG 4 (No Effect)” value in data set [2] (average of the MTS scores at 10, 30 and 100 μM) is 4.000. Further, the “MTS 10 μM” value in data set [2] (score at nominal 10 μM, 4 = No Effect) stood at 4. For the same compound, the “MTS 30 μM” value in data set [2] (score at nominal 30 μM, 4 = No Effect) was 4. The “MTS 100 μM” value in data set [2] (score at nominal 100 μM, 4 = No Effect) is 4.
